Assay results as given in patent publication US8722623B2, “Compositions and methods utilizing fibrin beta chain fragments” (University of Maryland, Baltimore, priority 2007, dated 2014).
“Also recorded” adds a separate entry of the source. No end group written: not given here.

Key:
[1] = test system: VE-cadherin; experiment: Surface plasmon resonance binding of peptides to immobilized VE-cadherin fragment; conditions: for affinity to VE-cadherin (in words): comparison between peptides; for binding to VE-cadherin: added at 400 nM
Description: To test binding activities of fibrin beta chain derived peptides of the invention to VE-caherin, surface plasmon resonance (SPR) methods are, for example, used. SPR experiments are performed using, for example, a BIAcore 3000 biosensor (BIAcore AB, Uppsala, Sweden), which can be used to measure the association/dissociation of peptides or proteins in real-time (see, for example, Karlsson, R., and Falt, A. J. Immunol. Methods (1997) 200, 121-133; Hall, D. Anal. Biochem. (2001) 288, 109-125; see also Gorlatov et al. Biochemistry (2002) 41, 4107-4116 for other VE-cadherin binding assays including, for example, SPR IAsys Analysis based assays and ELISA based assays). An exemplary method is described in the following passage. VE-cadherin fragment is covalently coupled via epsilon-amino groups to the activated surface of a CM5 biosensor chip by the procedure described by, for example, Karlsson, R., and Falt, A. (J. Immunol. Methods (1997) 200, 121-133; see also Gorlatov et al. Biochemistry (2002) 41, 4107-4116). Briefly, the carboxyl groups on the sensor surface were activated with an injection of a solution containing, for example, 0.2 M N-ethyl-N-(3-diethylamino-propyl) carbodiimide and 0.05 M N-hydroxysuccinimide. VE-cadherin to be coupled is prepared in 10 mM sodium-acetate buffer, pH 4.0, containing 1 mM CaCl2, and injected onto the activated CM5 surface at 5 mL/min followed by incubation for 7 min after which the surface was deactivated by passing 1 M ethanolamine. Activation time, ligand concentration, and contact time are adjusted to achieve a coupling density of 5-6 ng/mm2. Binding experiments are performed, for example, in 10 mM Hepes buffer, pH 7.4, containing 200 mM NaCl, 1 mM CaCl2, 0.02% NaN3, and 0.05% n-octyl beta-D-glucopyranoside (binding buffer). Samples comprising, for example, fibrin beta chain derived peptides β15-42, β15-64, and (β15-66)2, at different concentrations are injected in duplicate in at least three separate experiments and the association/dissociation between the immobilized and the added peptides is monitored as the change in the SPR response. To regenerate the chip, complete dissociation of the complex was achieved by adding, for example, 20 mM Tris buffer, pH 7.5, containing 0.5 M urea, 0.5 M NaCl, and 0.5% Triton X-100, for 1 min following reequilibration with binding buffer. Experimental data are analyzed using, for example, BIAevaluation 3.0 software supplied with the instrument. Briefly, kinetic constants, kass and kdis, are estimated by global analysis of the association/dissociation curves to the 1:1 Langmurian interaction model (Morton, T. A., and Myszka, D. G. Methods Enzymol. (1998) 295, 268-294). The dissociation equilibrium constant (Kd) is calculated as Kd=kdiss/kass. It is also noted that other methods known to one of ordinary skill in the art can be used to determine binding activities of fibrin beta chain derived peptides of the invention to VE-caherin including, for example, ELISA-based methods (see, for example, Gorlatov et al. Biochemistry (2002) 41, 4107-4116).

[2] = test system: leukocyte (neutrophil) migration into the peritoneum; experiment: Thioglycollate-induced in vivo peritonitis model of leukocyte migration; parameters: species or system mouse; conditions: for inhibition of leukocyte infiltration and migration compared to β15-42: (β15-66)2 8.6 mg/kg, (β15-44)2 5.1 mg/kg; for leukocyte migration / number of leukocytes accumulating in the peritoneum: peptide i.v. prior to i.p. thioglycollate, peritoneal lavage at 4 h, versus PBS control
Description: We compared their anti-inflammatory effects in an in vivo peritonitis model, a well established mouse model for leukocyte migration into sites of acute inflammation. In this model, leukocyte migration from the circulation into the peritoneum was stimulated by intraperitoneal (i.p.) injection of thioglycollate, and leukocyte (neutrophil) accumulation was evaluated after 4 hours by measuring the cell number in the peritoneal lavage.
Leukocyte (e.g., neutrophil) infiltration is a hallmark of injury associated with ischemia and reperfusion, as well as a number of other inflammatory conditions. Therefore, peptides of the invention are tested to determine the ability to decrease leukocyte infiltration in vivo. The ability to inhibit leukocyte infiltration was tested in an in vivo model of peritonitis, which is a well established mouse model for leukocyte infiltration and migration into sites of inflammation. The protocol for this animal model is described as below. Experiments were performed consistent with accepted practice (see, for example, Bosse et al. 1994. Eur. J. Immunol. 24: 3019; Borges et al. 1997. Blood 90: 1934; US Patent Application Publication No. 20030105020). To induce peritonitis, thioglycollate was administered intraperitoneally (i.p.) to mice. For inhibition studies, mice were injected intravenously (i.v.) with either β15-42, (β15-44)2, or (β15-66)2 prior to i.p. injection of thioglycollate (FIG. 4). Control mice were treated with the same volume of PBS. All reagents are kept endotoxin-free. At 4 h after injection of thioglycollate, mice were sacrificed and the peritoneal lavage was generated by, for example, injecting 10 ml PBS, massaging the peritoneal wall, and removing the fluid. Following the peritoneal lavage, leukocytes were quantified (e.g., neutrophil quantification determined using a hemocytometer).

[3] = test system: ischemic myocardium; experiment: Coronary artery ligation mouse model of myocardial infarction (ischemia and reperfusion); type: in vivo; conditions: MI mice, i.v., about 16 nanomoles
Excerpt: To confirm the ability of (β15-66)2, (β15-44)2, (β15-40)2, (β15-35)2, and β15-42 to protect (with the former peptides showing increased protection over β15-42) against injury following ischemia and reperfusion an animal model of myocardial infarction (MI) is employed. The effect of the β15-42, (β15-66)2, (β15-44)2, (β15-40)2, and (β15-35)2 (and other fibrin beta chain derived peptides of the invention) on the protection and infiltration and migration of leukocytes into the ischemic myocardium is determined by, for example, using a coronary artery ligation mouse model of MI. To determine the efficacy of these peptides to protect against injury and inhibit leukocyte infiltration and migration into the myocardium following ischemia a fibrin beta chain derived peptide is administered (for example, at a dose of about 16 nanomoles, which can be adjusted accordingly to determine efficacy) i.v. into 8-12 week-old C57BL6 mice (20 to 25 g), for example, prior to left anterior descending (LAD) coronary artery ligation, upon reperfusion, or after reperfusion. Mice injected with PBS are used as controls. […] Administration can be adjusted based on, for example, pharmacodynamic and pharmacokinetic properties.
The study may comprise at least 7 different groups: sham-operated control (group #1), MI mice with no treatment (group #2), and MI mice treated with β15-42 (group #3), (β15-66)2 (group #4), (β15-44)2 (group #5), (β15-40)2 (group #6), and (β15-35)2 (group #7). To ensure objectivity, these experiments are conducted in a double-blind and placebo-controlled manner. Thus, β15-42, (β15-66)2, (β15-44)2, (β15-40)2, (β15-35)2, and PBS are assigned randomly to a reference number, which is blinded to the personnel involved in conducting the surgery and performing post-surgery analysis. […] Leukocyte infiltration into the ischemic myocardium is determined by H&E staining and cardiomyocyte apoptosis is determined by TdT-mediated dUTP Nick-End Labeling (TUNEL) staining. […]

[4] = target: T1, VE-cadherin (Homo sapiens, UniProt P33151); conditions: cited from earlier work
T1 sequence (P33151 48-784): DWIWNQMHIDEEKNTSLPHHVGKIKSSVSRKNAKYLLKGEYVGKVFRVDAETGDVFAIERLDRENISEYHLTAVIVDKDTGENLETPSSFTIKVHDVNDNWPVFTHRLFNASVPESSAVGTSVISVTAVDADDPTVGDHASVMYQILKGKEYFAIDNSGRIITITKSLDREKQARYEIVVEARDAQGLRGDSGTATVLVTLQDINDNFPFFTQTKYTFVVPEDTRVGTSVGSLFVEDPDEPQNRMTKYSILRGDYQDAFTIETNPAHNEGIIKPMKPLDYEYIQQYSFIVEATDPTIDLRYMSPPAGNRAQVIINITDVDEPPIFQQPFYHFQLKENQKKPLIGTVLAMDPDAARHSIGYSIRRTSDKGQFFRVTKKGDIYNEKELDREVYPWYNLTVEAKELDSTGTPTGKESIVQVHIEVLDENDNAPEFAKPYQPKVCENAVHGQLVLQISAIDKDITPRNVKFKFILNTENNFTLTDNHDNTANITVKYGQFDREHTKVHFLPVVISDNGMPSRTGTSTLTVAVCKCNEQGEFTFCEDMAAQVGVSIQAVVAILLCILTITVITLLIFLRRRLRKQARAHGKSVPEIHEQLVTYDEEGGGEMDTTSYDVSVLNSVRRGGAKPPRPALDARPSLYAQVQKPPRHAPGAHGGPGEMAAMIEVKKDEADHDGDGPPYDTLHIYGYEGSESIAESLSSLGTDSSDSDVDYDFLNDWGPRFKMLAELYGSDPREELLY

[5] = test system: myocardial ischemia-reperfusion injury; conditions: acute or chronic rat models; cited from earlier work

Substance	affinity to VE-cadherin (in words) [1]	inhibition of leukocyte infiltration and migration compared to β15-42 ([2]; peritonitis model, 4 h)	efficacy compared to β15-42 [3]	leukocyte migration / number of leukocytes accumulating in the peritoneum [2]	binding to VE-cadherin [1]	further results
(β15-35)2: dimer; monomer GHRPLDKKREEAPSLRPAYCG (SEQ ID NO:7) (GHRPLDKKREEAPSLRPAYCG; also: disulfide-linked homodimer)	even higher affinity	even further inhibit leukocyte infiltration and migration	increased efficacy	–	–	affinity to VE-cadherin compared to both (β15-44)2 and (β15-40)2 ([1]; FIG. 3): unexpectedly higher degree of affinity
(β15-40)2: dimer; monomer GHRPLDKKREEAPSLRPAPPPISYCG (SEQ ID NO:6) (GHRPLDKKREEAPSLRPAPPPISYCG; also: disulfide-linked homodimer)	even higher affinity	even further inhibit leukocyte infiltration and migration	increased efficacy	–	–	–
(β15-44)2: synthetic dimer; monomer GHRPLDKKREEAPSLRPAPPPISGGGYRCG (SEQ ID NO:5), Cys43-Cys43 disulfide bond (GHRPLDKKREEAPSLRPAPPPISGGGYRCG; also: Cys43-Cys43 disulfide homodimer)	comparable to that of (β15-66)2; also recorded: even higher affinity	almost twice as much	increased efficacy	inhibits leukocyte migration	–	number of leukocytes compared to β15-44 ([2]; peritonitis model, 4 h): decrease in the number of leukocytes; inhibitory effect on leukocyte transmigration compared to (β15-66)2 ([2]; peritonitis model, FIG. 4): superior
thymosin β4 (SDKPDMAEIEKFDKSKLKKTETQEKNPLPSKETIEQEKQAGES; Thymosin beta-4; UniProt P62328 2-44, looked up) [TB4]	–	–	–	inhibits leukocyte migration	–	–
β15-42: peptide which includes amino acid residues 15-42 of the fibrin β chain (GHRPLDKKREEAPSLRPAPPPISGGGYR) [reference compound]	weak	–	–	significantly lower; also recorded: inhibits leukocyte migration	very little binding	competition with fibrin for the interaction with VE-cadherin [4]: competes with fibrin for the interaction with VE-cadherin; myocardial inflammation and infarct size [5]: substantially reduced
β15-64: monomeric fibrin β chain residues 15-64 (fibrin βN-domain) [reference compound]	–	–	–	–	very little binding	–
